We go through 3 molecules from patent US20220175836A1, “PRIMING WITH TARGETED ACTIVATED T CELLS CAN ENHANCE CHEMO RESPONSIVENESS OF CANCER CELLS” (University of Virginia Patent Foundation, priority 2019, published 2022).

Like-named read-outs stand apart in the source and are kept apart here.

The subject of assay [1] is BxPC-3 cells. The assay is described as follows: IC50 concentration in BxPC-3 cells. In kind it is cell-based.
The subject of assay [2] is CFPAC cells. The experiment in a line: IC50 concentration in CFPAC cells. In kind it is cell-based.
Assay [3] has as its system PANC-1. The experiment in a line: IC50 concentration by MTT colorimetric assay. It counts as cell-based, human. As for the experimental part: (§1) MiaPaCa-2 and PANC-1 cells were trypsinized, washed, and incubated overnight in a humidified incubator. Each condition was performed in quadruplicate with 3×10^3 cells/well on a 96-well flat bottom plate. […] After drug treatment, 15 μL of the MTT dye solution was added to each well and incubated for 4 hours in a humidified incubator. The reaction was stopped by adding 100 μL of solubilization solution and the plate was incubated for an additional hour at room temperature. The wells were mixed and the absorbance was measured at 570 nm using a Synergy HTX Plate Reader. The % inhibition was calculated using the following equation: […]

Assay [4] concerns MiaPaCa-2. The experiment in a line: IC50 concentration by MTT colorimetric assay. In kind it is cell-based, human. As for the experimental part: as §1
Assay [5] concerns L3.6. The assay is described as follows: IC50 concentration in L3.6 cells. It counts as cell-based.
For assay [6], the system named is Pancreatic cancer (PC). The note with it: advanced or recurrent disease patients; cited from earlier work.

For the molecule `O=c1[nH]cc(F)c(=O)[nH]1` [5FU, 5 fluorouracil], the IC50 was found to be 14.6 µM in assay [1] (Homo sapiens); 5 µM in assay [2] (no unit printed at b33, read-out: IC50 dose); 5 µM in assay [2] (read-out: IC50 concentration).

As for `N.N.[Cl][Pt][Cl]` [CIS, cisplatin], the IC50 was found to be 6.9 µM in assay [1]; 10 µM in assay [2] (read-out: IC50 concentration); 14 µM in assay [3] (PANC-1, 72 hours treatment, MTT); 14 µM in assay [3] (PANC-1, no unit printed at b274); 18.6 µM in assay [4] (MiaPaCa-2, 72 hours treatment, MTT); 18.6 µM in assay [4] (MiaPaCa-2, no unit printed at b274). In assay [5], this molecule showed an IC50 of 16 µM.

As for `Nc1ccn([C@@H]2O[C@H](CO)[C@@H](O)C2(F)F)c(=O)n1` [Gem, gemcitabine], in assay [6], the median survival is recorded as 6.7 months. Further, the IC50 is 15.6 µM in assay [4] (Homo sapiens, MIA PaCa-2, MiaPaCa-2, 72 hours treatment, MTT) and 12 µM in assay [5].
